The source made the active and inactive calls.
Assays:
[1] = target: T1, Short transient receptor potential channel 4 (Mus musculus, UniProt Q9QUQ5); experiment: block of DAMGO-driven TRPC4 calcium entry – cell-based, HEK293 TRPC4/mu-opioid, Fluo-4 calcium, dose response (AID 434942); assay type: functional;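 also: potency of inhibitors blocking the TRPC4 calcium response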
T1 sequence (Q9QUQ5 whole entry): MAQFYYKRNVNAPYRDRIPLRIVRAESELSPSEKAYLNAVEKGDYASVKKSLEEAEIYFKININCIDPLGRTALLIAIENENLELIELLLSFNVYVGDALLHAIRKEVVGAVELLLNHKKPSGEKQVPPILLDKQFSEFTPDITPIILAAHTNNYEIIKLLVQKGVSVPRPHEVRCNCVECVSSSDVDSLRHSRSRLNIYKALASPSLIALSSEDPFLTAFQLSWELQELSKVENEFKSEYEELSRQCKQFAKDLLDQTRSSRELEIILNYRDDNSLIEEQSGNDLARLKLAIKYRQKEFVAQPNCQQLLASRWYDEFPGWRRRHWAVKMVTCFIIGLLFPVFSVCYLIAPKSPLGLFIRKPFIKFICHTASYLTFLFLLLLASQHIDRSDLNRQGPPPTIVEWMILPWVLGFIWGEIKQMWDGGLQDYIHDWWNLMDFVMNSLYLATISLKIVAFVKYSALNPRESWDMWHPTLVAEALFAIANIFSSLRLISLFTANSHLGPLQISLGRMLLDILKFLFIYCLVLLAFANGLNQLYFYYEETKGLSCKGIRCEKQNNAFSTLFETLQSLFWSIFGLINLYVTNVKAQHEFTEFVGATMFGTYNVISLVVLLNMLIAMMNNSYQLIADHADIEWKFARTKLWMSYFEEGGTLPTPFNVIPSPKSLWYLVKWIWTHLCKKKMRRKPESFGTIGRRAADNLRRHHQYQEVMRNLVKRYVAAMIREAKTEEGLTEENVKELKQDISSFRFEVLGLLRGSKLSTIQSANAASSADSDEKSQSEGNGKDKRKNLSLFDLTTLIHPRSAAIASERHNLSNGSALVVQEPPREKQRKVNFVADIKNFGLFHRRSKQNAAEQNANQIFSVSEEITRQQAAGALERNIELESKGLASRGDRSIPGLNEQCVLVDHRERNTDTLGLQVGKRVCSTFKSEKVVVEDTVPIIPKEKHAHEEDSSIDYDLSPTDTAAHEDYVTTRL

[2] = target: FAD-linked sulfhydryl oxidase ALR (Homo sapiens, UniProt P55789); experiment: ALR-catalysed DTT oxidation blockers – biochemical, H2O2 detection, luminescence, cherry-pick, dose response (AID 493248)
Chain of FAD-linked sulfhydryl oxidase ALR (P55789 whole entry): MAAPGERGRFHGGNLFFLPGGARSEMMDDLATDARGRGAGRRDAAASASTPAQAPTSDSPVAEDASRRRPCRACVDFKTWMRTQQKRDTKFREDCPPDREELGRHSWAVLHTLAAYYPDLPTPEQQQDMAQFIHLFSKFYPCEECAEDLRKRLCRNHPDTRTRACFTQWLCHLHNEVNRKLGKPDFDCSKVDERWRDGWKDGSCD

[3] = P. falciparum Dd2 growth inhibitors, dose response, SYBR Green, cherry-picked samples (AID 1159567); assay type: functional, cell-based
[4] = target: Luciferin 4-monooxygenase (Photinus pyralis, UniProt P08659); experiment: inhibition of purified Photinus pyralis luciferase – biochemical, luminescence, dose response (AID 1891)
Chain of Luciferin 4-monooxygenase (P08659 whole entry): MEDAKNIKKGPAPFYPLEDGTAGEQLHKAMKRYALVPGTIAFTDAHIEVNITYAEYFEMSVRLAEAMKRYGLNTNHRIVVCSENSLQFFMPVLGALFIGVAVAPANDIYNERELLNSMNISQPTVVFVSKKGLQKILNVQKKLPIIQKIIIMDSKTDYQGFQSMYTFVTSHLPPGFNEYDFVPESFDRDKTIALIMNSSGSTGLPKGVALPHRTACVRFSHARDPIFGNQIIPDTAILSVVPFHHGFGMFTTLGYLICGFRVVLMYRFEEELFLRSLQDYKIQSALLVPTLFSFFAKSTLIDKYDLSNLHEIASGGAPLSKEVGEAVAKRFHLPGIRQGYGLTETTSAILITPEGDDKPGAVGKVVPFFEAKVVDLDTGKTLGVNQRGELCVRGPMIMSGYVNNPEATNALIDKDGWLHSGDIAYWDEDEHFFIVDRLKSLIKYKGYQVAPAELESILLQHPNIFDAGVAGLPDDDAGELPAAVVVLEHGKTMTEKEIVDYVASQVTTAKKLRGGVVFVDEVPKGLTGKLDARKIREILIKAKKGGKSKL

[5] = Luminescence Cell-Based Dose Confirmation HTS to Identify Inhibitors of Platelet Dense Granule Release. [Related pubchem assays: 1663 (Primary HTS), 1678 (Summary of Project)]; assay type: functional
[6] = Luminescence Cell-Based Dose Retest to Confirm Inhibitors of Cancer Stem Cells. [Related pubchem assays (depositor defined):AID2717, AID2721]; assay type: functional; details: Homo sapiens
[7] = Luminescence Cell-Based Dose Confirmation HTS to Identify Activators of 5'UTR Stem-Loop Driven Alpha-Synuclein mRNA Translation in H4 Neuroglioblastoma Cells. [Related pubchem assays: 1829 (Project Summary), 1814 (Primary HTS)]; assay type: functional
[8] = Luminescence Cell-Based Dose Response HTS to Identify Activators of Luciferase Translation or Activity in H4 […] Cells. [Related pubchem assays: 1829 (Project Summary), 1814 (Primary HTS)]; assay type: functional
H4 = experiment: Luminescence Cell-Based Dose Response HTS to Identify Activators of 5'UTR Stem-Loop Driven Prion Protein mRNA Translation in H4 Neuroglioblastoma Cells. [Related pubchem assays: 1829 (Project Summary), 1814 (Primary HTS)]; assay type: functional; details: Homo sapiens
INS1 = experiment: INS-1E survival protection against cytokine death – cell-based, luminescence, retest, dose response (AID 449756); assay type: functional; details: Rattus norvegicus;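 also: cell death triggered by IL-1 beta plus TNF-alpha plus IFN-gamma mixture; protective hits raise ATP signal compared with cytokine alone wells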
Paired box protein Pax-8 = Paired box protein Pax-8 (Homo sapiens, UniProt Q06710); experiment: PAX8 transcriptional activity inhibition in RMG-I – RMG-I cells, luciferase, cherry-pick, dose response (AID 687027); assay type: functional, cell-based;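 also: luciferase reporter driven by Pax8 target thyroperoxidase promoter measured by SteadyGlo luminescence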
Chain of Paired box protein Pax-8 (Q06710 whole entry, the tested form may be a part): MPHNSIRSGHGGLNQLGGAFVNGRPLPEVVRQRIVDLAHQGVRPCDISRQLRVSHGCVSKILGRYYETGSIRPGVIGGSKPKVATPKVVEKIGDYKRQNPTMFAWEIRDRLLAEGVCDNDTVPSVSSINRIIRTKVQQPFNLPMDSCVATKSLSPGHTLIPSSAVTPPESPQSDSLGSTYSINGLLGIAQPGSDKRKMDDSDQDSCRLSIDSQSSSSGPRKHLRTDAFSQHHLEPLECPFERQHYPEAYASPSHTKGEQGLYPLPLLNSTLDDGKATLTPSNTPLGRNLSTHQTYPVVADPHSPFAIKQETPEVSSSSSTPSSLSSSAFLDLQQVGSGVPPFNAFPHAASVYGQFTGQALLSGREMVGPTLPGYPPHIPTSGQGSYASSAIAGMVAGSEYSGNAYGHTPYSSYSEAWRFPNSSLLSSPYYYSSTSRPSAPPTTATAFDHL

[9] = blockers of HIV-1 envelope-mediated cell-cell fusion – cherry-pick, dose response (AID 652057); assay type: functional, cell-based

Cc1cc(C)c2nc(O)c(CN(Cc3cccnc3)C(S)=NCCCN(C)C)cc2c1
EC50 [1]: 2.37 µM (active)

COc1cccc2c(N/N=C/c3ccccc3)cc(C)nc12
AC50 [2]: 6.41 µM (active)

COc1cccc(CN2CC3(CN(Cc4ccccn4)C3)c3c([nH]c4cc(OC)ccc34)[C@@H]2CO)c1
AC50 [3]: 6.62 µM (active)

C[C@H]1CN([C@@H](C)CO)C(=O)c2c(c3ccccc3n2C)-c2ccccc2CO[C@@H]1CN(C)Cc1ccc(Oc2ccccc2)cc1
AC50 [3]: 1.76 µM (active)

CC1=NN(C(C#N)c2cccc([N+](=O)[O-])c2)C(C)(C)C1 (stereo not drawn)
EC50 [4]: > 112 µM (not active) | EC50 [5]: > 112 µM (not active)

NC(=O)CC(NC(=O)Cc1cccc2ccccc12)c1ccc(N2CCc3ccccc3C2)c([N+](=O)[O-])c1 (stereo not drawn)
AC50 [6]: 12.2 µM (active)

COc1cc(OC)cc(C(=O)Nc2ccc3c(c2)OCCO3)c1
EC50 [4]: 3.95 µM (active) | EC50 [5]: 6.36 µM (active)

CSc1nc2nccc(/C=C\c3ccccc3)n2n1
EC50 [7]: > 120 µM (not active) | EC50 [8]: > 120 µM (not active) | EC50 (H4): > 120 µM (not active)

Cc1ccc(C(=O)N/N=C\c2ccc(-c3ccc(Cl)c(Cl)c3)o2)cn1
AC50 [6]: 3.71 µM (active)

COc1cc(/C=N/n2c(C)nnc2S)ccc1OCc1ccccc1
AC50 [2]: 0.861 µM (active)

COc1cc(C2NCC(c3ccc(Cl)cc3Cl)c3c2[nH]c2ccccc32)cc(OC)c1OC (stereo not drawn)
AC50 [6]: 3.7 µM (active)

CC(C)N=C(S)N1CCN(C/C=C/c2ccccc2)CC1
EC50 [1]: 4.73 µM (active)

CC(=O)Oc1ccc(-c2cc3c(OC(C)=O)cc(OC(C)=O)cc3oc2=O)cc1
EC50 [4]: > 112 µM (not active) | EC50 [5]: 13.7 µM (active)

Cc1nn(-c2nc3ccccc3n2Cc2ccccc2)c2c1C(=O)CC(C)(C)C2
EC50 [1]: 2.11 µM (active)

CCOC(=O)C1(Cc2ccccc2)CCN(Cc2ccc(C)s2)CC1
EC50 [1]: 0.133 µM (active)

C[C@H]1CN([C@@H](C)CO)C(=O)c2c(c3ccccc3n2C)-c2ccccc2CO[C@@H]1CN(C)S(=O)(=O)c1ccc(C(F)(F)F)cc1
AC50 [3]: 4.6 µM (active)

COc1cc(-c2nc(-c3ccc(NC(=O)c4ccc(Br)o4)cc3)no2)cc(OC)c1OC
AC50 [6]: 0.725 µM (active)

CN(C)C(=O)CN1C(=O)C2CC=C(Cl)CC2C1=O (stereo not drawn)
EC50 [4]: > 112 µM (not active) | EC50 [5]: > 112 µM (not active)

COC(=O)C1(Cc2cc(-c3ccccc3)no2)CCN(C(=O)OC(C)(C)C)CC1
EC50 [7]: 9.17 µM (active) | EC50 [8]: 49.6 µM (active) | EC50 (H4): 55.7 µM (active)

CC(=O)OCCCN1C(=O)c2cccc3cc(Br)cc(c23)C1=O
EC50 [1]: 0.211 µM (active)

Cc1cnc(C(=O)N2CCCC(C(=O)c3ccc(Cl)cc3C)C2)cn1 (stereo not drawn)
EC50 [4]: > 112 µM (not active) | EC50 [5]: > 112 µM (not active)

CCCCCC(=O)Nc1nc(C)c(-c2csc(Nc3cc(OC)ccc3OC)n2)s1
AC50 [6]: 1.29 µM (active)

COc1ccc(C(CNC(=O)c2oc3ccc(F)cc3c2C)N2CCCCC2)cc1 (stereo not drawn)
EC50 [1]: 1.88 µM (active)

CCc1cc2c(=O)c(-c3nc4ccccc4n3C)c(COCC(=O)O)oc2cc1O
EC50 [7]: > 120 µM (not active) | EC50 [8]: > 120 µM (not active) | EC50 (H4): > 120 µM (not active)

O=C(NCCCn1ccnc1)C(=O)NCC(c1ccco1)N1CCN(c2ccccc2)CC1 (stereo not drawn)
AC50 [2]: 3.74 µM (active)

O=C(NCc1ccccc1)/C(NC(=O)c1ccccc1)=C(/Sc1ccccn1)c1ccccc1
EC50 [4]: > 112 µM (not active) | EC50 [5]: > 112 µM (not active)

O=[N+]([O-])c1ccccc1N/N=C1\CCc2ccccc21
EC50 [8]: 0.268 µM (active) | EC50 (H4): 2.24 µM (active)

COC(=O)Cc1c(C)c2ccc(OCC(=O)N3CCC(C)CC3)c(C)c2oc1=O
EC50 [4]: > 112 µM (not active) | EC50 [5]: 22.1 µM (active)

O=C(N/N=C/c1cc(Cl)ccc1O)C(=O)Nc1ccccc1OC(F)(F)C(F)F
AC50 [6]: 2.35 µM (active) | AC50 (INS1): 2.7 µM (active)

OC[C@@H]1Nc2ccc(C3=CCCCC3)cc2[C@@H]2[C@H]1CCN2Cc1nccs1
AC50 [3]: 6.24 µM (active)

O=C(CNC(=O)c1cn2ccccc2n1)Nc1ccc(F)c(F)c1
EC50 [7]: 0.453 µM (active) | EC50 [8]: 45.5 µM (active) | EC50 (H4): > 120 µM (not active)

Cc1ccc(C2NNC(=O)C2NC(=O)c2ccccc2)cc1 (stereo not drawn)
EC50 [7]: 11.3 µM (active) | EC50 [8]: 9.08 µM (active) | EC50 (H4): 48.6 µM (active)

O=S(=O)(c1ccccc1)c1cc(O)ccc1O
AC50 [2]: 6.08 µM (active)

CCS(=O)(=O)N1CCC2(CC1)CN(Cc1cc(F)ccc1F)[C@H](CO)c1c2c2ccc(OC)cc2n1C
AC50 [3]: 6.16 µM (active)

O=C(C1CCCCC1)N1CC(=O)N2[C@H](CO)[C@@H](c3ccc(C#CCc4ccccc4)cc3)[C@@H]2C1
AC50 [3]: 5.61 µM (active)

Cc1c(CCOC(=O)c2cccc([N+](=O)[O-])c2)sc[n+]1CC(=O)c1ccccc1
EC50 [1]: 6.68 µM (active)

O=C(CCC(=O)c1cccs1)Nc1ccc(N2CCCCC2)cc1
AC50 [2]: 6.49 µM (active)

C[C@H]1CCCCO[C@@H](CN(C)C(=O)c2ccccc2)[C@@H](C)CN([C@@H](C)CO)C(=O)c2cc(NC(=O)Nc3ccc(C(F)(F)F)cc3)ccc2O1
AC50 (Paired box protein Pax-8): 3.76 µM (active)

O=C(O)c1cccc(NC(=O)c2cc(-c3cccc(Cl)c3)nc3ccccc23)c1
AC50 [2]: 0.01 µM (active)

Clc1ccc2c(c1)-c1nnc(Br)n1-c1ccccc1S2
EC50 [1]: 5.96 µM (active)

C[C@@H]1CCCCO[C@H](CN(C)S(=O)(=O)c2ccc(Cl)cc2)[C@H](C)CN([C@@H](C)CO)C(=O)c2cc(NS(=O)(=O)c3ccc(F)cc3)ccc2O1
AC50 (Paired box protein Pax-8): 4.33 µM (active)

CCc1nnc(NC(=O)CSc2nc3c(cc2C#N)CCC3)s1
EC50 [8]: 0.131 µM (active) | EC50 (H4): > 120 µM (not active)

COc1ccccc1NC(=O)c1cc(O)nc2ccccc12
AC50 [2]: 0.202 µM (active)

CC1(c2ccccc2)CC(C)(C)N(C(=O)C2CCCO2)c2ccccc21 (stereo not drawn)
EC50 [1]: 3.76 µM (active)

Oc1ccc(C[C@H]2CNC(=S)N2CC2CCCN2C[C@H](Cc2ccc(O)cc2)N2C[C@H](Cc3ccc(O)cc3)N(CC3CCCCCC3)C2=S)cc1 (stereo partly drawn)
AC50 (Paired box protein Pax-8): 5.35 µM (active)

Cn1c(S)nnc1-c1cnn(-c2ccccc2)c1N
EC50 [4]: > 112 µM (not active) | EC50 [5]: 4.85 µM (active)

O=C(Nc1ccc2c(c1)OCCO2)NC12CC3CC(CC(C3)C1)C2
EC50 [7]: 5.22 µM (active) | EC50 [8]: 0.516 µM (active) | EC50 (H4): > 120 µM (not active)

Cc1c(C(=O)Nc2ccccc2)sc2nc(-c3ccccc3)cn12
EC50 [7]: 4.41 µM (active) | EC50 [8]: 6.59 µM (active) | EC50 (H4): 44.2 µM (active)

C/C=C/c1ccc([C@@H]2[C@H]3CNC[C@@H]2N3Cc2cc(F)ccc2F)cc1
AC50 [3]: 4 µM (active)

CCOC(=O)CSc1nc2c(sc(=S)n2-c2ccccc2OC)c(=O)n1-c1ccccc1OC
EC50 [1]: 2.37 µM (active)

N#C[C@@H]1[C@H](c2ccccc2-c2cccc(F)c2)[C@H](CO)N1C(=O)C1CCCC1
AC50 [3]: 2.8 µM (active)

COc1ccc(C(=O)NC2CCSc3ccccc32)cc1 (stereo not drawn)
EC50 [4]: > 112 µM (not active) | EC50 [5]: > 112 µM (not active)

O=C(/C=C/c1ccc(S(=O)(=O)NCc2ccco2)cc1)NCc1ccccc1Cl
EC50 [7]: > 120 µM (not active) | EC50 [8]: > 120 µM (not active) | EC50 (H4): 16.4 µM (active)

CN1CCN(c2ccc(NC(=O)c3ccc(Cl)cc3)cn2)CC1
AC50 [6]: 19.8 µM (active)

CSc1ncccc1C(=O)OCC(=O)Nc1ccc(C)c(S(=O)(=O)N2CCOCC2)c1
AC50 [9]: 53.2 µM (active)

Source: ChEMBL document CHEMBL1201862, “PubChem BioAssay data set” (2004)
